According to patent US5081284A, “Proteinase inhibitor” (Suntory Limited, priority 1989, dated 1992):
pIC50: −log10 of the molar value. Peptide text beside a SMILES is read from it. * marks the point of attachment. Cbz = O=C(OCc1ccccc1)*

The molecules below were run against T1, papain (Carica papaya, UniProt P00784) (assay: Anti-papain activity (casein hydrolysis, Lowry-Folin method)). Settings: not given.
T1 sequence (P00784 134-345): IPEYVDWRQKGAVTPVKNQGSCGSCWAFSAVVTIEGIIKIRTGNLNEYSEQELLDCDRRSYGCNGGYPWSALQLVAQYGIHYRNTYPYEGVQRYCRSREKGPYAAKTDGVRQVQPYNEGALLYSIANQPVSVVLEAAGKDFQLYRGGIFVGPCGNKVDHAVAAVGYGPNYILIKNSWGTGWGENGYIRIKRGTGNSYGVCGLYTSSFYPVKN
Type: biochemical
Protocol: (§1) A mixture of a test compound of the present invention, papain (0.015 units) and a citrate buffer solution (20 mM, pH=6.2,1 ml) containing EDTA (0.88 mg) was preincubated at 30° C. for 5 minutes and a substrate solution (1 ml) was added to start the reaction. The substrate was a 1% solution of casein in the citrate buffer. The reaction was performed at 30° C. for 20 minutes. The reaction was quenched by adding 6.5% trichloroacetic acid (3 ml) to the reaction solution. The amount of casein that had been hydrolyzed enzymatically in the trichloroacetic acid soluble fraction was measured by the Lowry-Folin method and the inhibitory activity of the test compound was determined by comparison with the control solution.
as §1, with “pH=6.2, 1” for “pH=6.2,1”
CCCC[C@@H](C=O)NC(=O)[C@H](CC(C)C)NC(=O)OC12CC3CC(CC(C3)C1)C2 [Example 5, N-adamantyloxycarbonyl-L-leucyl-L-norleucinal] showed a pIC50 of 6.68.

Same assay, conditions: Table 2 (Example 28); pH 6.2, 30° C., 20 minutes, casein; read-out: Inhibitory activity toward papain, IC50
With CC(C)C[C@H](NC(=O)CCCc1ccccc1)C(=O)N[C@H](C=O)Cc1ccccc1 [Example 22, N-(4-phenyl)butanoyl-L-leucyl-L-phenylalaninal] the pIC50 was 7.74.
Molecule CC(=O)N[C@@H](CC(C)C)C(=O)N[C@@H](CC(C)C)C(=O)N[C@H](C=O)CCCNC(=N)N [Leupeptin, reference compound] has a pIC50 of 7.28.
In the case of CCCC[C@H](NC(=O)[C@H](CC(C)C)NC(=O)OCc1ccccc1)C(=O)CCl [Example 26, N-benzyloxycarbonyl-L-leucine 1s-chloroacetyl-n-pentylamide], the pIC50 was 7.92.
Work on CCCC[C@H](NC(=O)[C@H](CC(C)C)NC(=O)CCCc1ccccc1)C(=O)CCl [Example 27, N-(4-phenylbutanoyl)-L-leucyl-L-norleucyl chloromethyl] yielded a pIC50 of 7.60.
For CSCC[C@@H](C=O)NC(=O)[C@H](CC(C)C)NC(=O)CCCc1ccccc1 [Example 24, N-(4-phenyl)butanoyl-L-leucyl-L-methioninal], the pIC50 was 7.72.
CCCC[C@@H](C=O)NC(=O)[C@H](CC(C)C)NC(=O)CCCc1ccccc1 [Example 23, N-(4-phenylbutanoyl)-L-leucyl-L-norleucinal] gave a pIC50 of 7.82.

Same assay, conditions: Table 5 (Example 29); pH 6.2, 30° C., 20 minutes, casein; read-out: Inhibitory activity toward papain, IC50
CCCC[C@@H](C=O)NC(=O)[C@H](CC(C)C)NC(=O)OCc1ccccc1 [Example 20, N-benzyloxycarbonyl-L-leucyl-L-norleucinal] gave a pIC50 of 6.51.
In the case of CCCC[C@@H](C=O)NC(=O)[C@H](CC(C)C)NC(C)=CC(=O)c1ccccc1 [Example 16, N-(2-benzoyl-1-methylvinyl)-L-leucyl-L-norleucinal], the pIC50 was 7.02.

The molecules below were run against T2, calpain I (Homo sapiens, UniProt P07384) (assay: Anti-calpain activity, calpain I (casein hydrolysis, Ross-Schatz method)). Settings: not given.
T2 sequence (P07384 1-714): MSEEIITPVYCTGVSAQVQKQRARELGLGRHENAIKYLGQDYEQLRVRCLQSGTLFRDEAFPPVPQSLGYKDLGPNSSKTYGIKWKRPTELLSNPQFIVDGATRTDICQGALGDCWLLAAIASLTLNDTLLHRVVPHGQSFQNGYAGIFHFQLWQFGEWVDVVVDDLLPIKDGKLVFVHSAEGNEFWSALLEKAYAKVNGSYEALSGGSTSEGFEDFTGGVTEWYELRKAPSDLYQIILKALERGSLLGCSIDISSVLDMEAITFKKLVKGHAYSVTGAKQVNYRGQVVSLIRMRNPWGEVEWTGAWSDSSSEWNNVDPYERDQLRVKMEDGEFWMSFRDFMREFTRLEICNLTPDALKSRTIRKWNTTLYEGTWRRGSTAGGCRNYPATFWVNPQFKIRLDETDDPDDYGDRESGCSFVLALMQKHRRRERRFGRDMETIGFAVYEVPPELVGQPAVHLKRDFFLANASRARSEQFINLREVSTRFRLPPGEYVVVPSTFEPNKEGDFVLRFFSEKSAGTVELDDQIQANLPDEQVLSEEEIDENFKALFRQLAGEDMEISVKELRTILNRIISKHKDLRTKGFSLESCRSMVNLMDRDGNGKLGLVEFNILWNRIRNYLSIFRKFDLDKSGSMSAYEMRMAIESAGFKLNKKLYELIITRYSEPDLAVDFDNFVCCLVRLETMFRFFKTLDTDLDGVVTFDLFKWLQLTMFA
T2 sequence (P04632 1-268 partner): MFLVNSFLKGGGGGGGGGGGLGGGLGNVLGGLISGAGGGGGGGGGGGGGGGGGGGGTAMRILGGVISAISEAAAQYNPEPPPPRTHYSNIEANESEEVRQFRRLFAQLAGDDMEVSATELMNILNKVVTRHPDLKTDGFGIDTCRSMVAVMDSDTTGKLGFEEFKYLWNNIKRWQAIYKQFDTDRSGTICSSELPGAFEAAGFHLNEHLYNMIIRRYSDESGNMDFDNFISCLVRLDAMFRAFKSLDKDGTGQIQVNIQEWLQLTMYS
Type: biochemical
In the case of CC(=O)N[C@@H](CC(C)C)C(=O)N[C@@H](CC(C)C)C(=O)N[C@H](C=O)CCCNC(=N)N [Leupeptin, reference compound], the pIC50 was 6.68.

Same assay, conditions: Table 3 (Example 28); pH 7.5, 30° C., 30 minutes, casein; read-out: Inhibitory activity toward calpain I, IC50
CC(C)C[C@H](NC(=O)OCc1ccccc1)C(=O)N[C@H](C=O)Cc1ccccc1 [Example 19, N-benzyloxycarbonyl-L-leucyl-L-phenylalaninal] (Cbz-Leu-Phe-aldehyde) was tested, and the pIC50 was 7.00.
With CCCC[C@@H](C=O)NC(=O)[C@H](CC(C)C)NC(=O)OCc1ccccc1 [Example 20, N-benzyloxycarbonyl-L-leucyl-L-norleucinal] the pIC50 was 7.28.
CCCC[C@H](NC(=O)[C@H](CC(C)C)NC(=O)OCc1ccccc1)C(=O)CCl [Example 26, N-benzyloxycarbonyl-L-leucine 1s-chloroacetyl-n-pentylamide] showed a pIC50 of 6.82.
In the case of CCCC[C@H](NC(=O)[C@H](CC(C)C)NC(=O)CCCc1ccccc1)C(=O)CCl [Example 27, N-(4-phenylbutanoyl)-L-leucyl-L-norleucyl chloromethyl], the pIC50 was 7.15.
Molecule CSCC[C@@H](C=O)NC(=O)[C@H](CC(C)C)NC(=O)CCCc1ccccc1 [Example 24, N-(4-phenyl)butanoyl-L-leucyl-L-methioninal] has a pIC50 of 7.42.
CCCC[C@@H](C=O)NC(=O)[C@H](CC(C)C)NC(=O)CCCc1ccccc1 [Example 23, N-(4-phenylbutanoyl)-L-leucyl-L-norleucinal] was tested, and the pIC50 was 7.40.

Same assay, conditions: Table 6 (Example 29); pH 7.5, 30° C., 30 minutes, casein; read-out: Inhibitory activity toward calpain I, IC50
In the case of CCCC[C@@H](C=O)NC(=O)[C@H](CCCC)NC(=O)OCc1ccccc1 [Example 18, N-benzyloxycarbonyl-L-norleucyl-L-norleucinal], the pIC50 was 6.15.
CCCC[C@@H](C=O)NC(=O)[C@H](CC(C)C)NC(=O)OCc1ccccc1 [Example 20, N-benzyloxycarbonyl-L-leucyl-L-norleucinal] showed a pIC50 of 6.15.
CCCC[C@@H](C=O)NC(=O)[C@H](CC(C)C)NC(C)=CC(=O)c1ccccc1 [Example 16, N-(2-benzoyl-1-methylvinyl)-L-leucyl-L-norleucinal] was tested, and the pIC50 was 6.40.
CCCC[C@@H](C=O)NC(=O)[C@H](CC(C)C)NC(=O)OC12CC3CC(CC(C3)C1)C2 [Example 5, N-adamantyloxycarbonyl-L-leucyl-L-norleucinal] gave a pIC50 of 6.82.
CCCCCCCC(=O)N[C@@H](CC(C)C)C(=O)N[C@H](C=O)CCCC [Example 1, N-caprylyl-L-leucyl-L-norleucinal] gave a pIC50 of 6.80.

What follows are molecules tested against T3, calpain II (Homo sapiens, UniProt P17655) (assay: Anti-calpain activity, calpain II (casein hydrolysis, Ross-Schatz method)). Settings: not given.
T3 sequence (P17655 1-700): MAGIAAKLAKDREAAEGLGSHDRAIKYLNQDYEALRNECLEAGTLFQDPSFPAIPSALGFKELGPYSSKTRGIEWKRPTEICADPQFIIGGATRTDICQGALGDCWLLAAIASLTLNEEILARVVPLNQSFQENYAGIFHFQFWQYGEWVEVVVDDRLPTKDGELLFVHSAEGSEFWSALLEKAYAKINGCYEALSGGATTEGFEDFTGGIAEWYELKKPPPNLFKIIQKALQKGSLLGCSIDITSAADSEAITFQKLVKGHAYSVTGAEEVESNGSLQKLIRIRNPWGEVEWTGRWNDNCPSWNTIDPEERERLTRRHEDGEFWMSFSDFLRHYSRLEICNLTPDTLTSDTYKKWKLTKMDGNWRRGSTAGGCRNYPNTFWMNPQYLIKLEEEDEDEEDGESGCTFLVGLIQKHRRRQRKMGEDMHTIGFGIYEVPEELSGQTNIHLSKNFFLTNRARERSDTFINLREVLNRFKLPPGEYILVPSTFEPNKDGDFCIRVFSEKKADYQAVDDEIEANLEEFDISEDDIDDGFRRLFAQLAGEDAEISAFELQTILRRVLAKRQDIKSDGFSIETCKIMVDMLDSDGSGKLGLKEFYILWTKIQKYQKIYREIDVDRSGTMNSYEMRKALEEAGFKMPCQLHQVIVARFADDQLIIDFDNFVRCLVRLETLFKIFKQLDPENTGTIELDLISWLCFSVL
T3 sequence (P04632 1-268 partner): T2 sequence (P04632 1-268 partner)
Type: biochemical
In the case of CC(=O)N[C@@H](CC(C)C)C(=O)N[C@@H](CC(C)C)C(=O)N[C@H](C=O)CCCNC(=N)N [Leupeptin, reference compound], the pIC50 was 6.03.

Same assay, conditions: Table 4 (Example 28); pH 7.5, 30° C., 30 minutes, casein; read-out: Inhibitory activity toward calpain II, IC50
For CC(C)C[C@H](NC(=O)OCc1ccccc1)C(=O)N[C@H](C=O)Cc1ccccc1 [Example 19, N-benzyloxycarbonyl-L-leucyl-L-phenylalaninal] (Cbz-Leu-Phe-aldehyde), the pIC50 was 7.46.
With CCCC[C@@H](C=O)NC(=O)[C@H](CC(C)C)NC(=O)OCc1ccccc1 [Example 20, N-benzyloxycarbonyl-L-leucyl-L-norleucinal] the pIC50 was 7.47.
Work on CC(C)C[C@H](NC(=O)CCCc1ccccc1)C(=O)N[C@H](C=O)Cc1ccccc1 [Example 22, N-(4-phenyl)butanoyl-L-leucyl-L-phenylalaninal] yielded a pIC50 of 7.54.
CCCC[C@H](NC(=O)[C@H](CC(C)C)NC(=O)OCc1ccccc1)C(=O)CCl [Example 26, N-benzyloxycarbonyl-L-leucine 1s-chloroacetyl-n-pentylamide] gave a pIC50 of 6.92.
CCCC[C@H](NC(=O)[C@H](CC(C)C)NC(=O)CCCc1ccccc1)C(=O)CCl [Example 27, N-(4-phenylbutanoyl)-L-leucyl-L-norleucyl chloromethyl] gave a pIC50 of 6.85.
For CSCC[C@@H](C=O)NC(=O)[C@H](CC(C)C)NC(=O)CCCc1ccccc1 [Example 24, N-(4-phenyl)butanoyl-L-leucyl-L-methioninal], the pIC50 was 7.15.
CCCC[C@@H](C=O)NC(=O)[C@H](CC(C)C)NC(=O)CCCc1ccccc1 [Example 23, N-(4-phenylbutanoyl)-L-leucyl-L-norleucinal] showed a pIC50 of 6.49.
With CSCC[C@@H](C=O)NC(=O)[C@H](CC(C)C)NC(=O)OCc1ccccc1 [Example 21, N-benzyloxycarbonyl-L-leucyl-L-methioninal] (Cbz-Leu-Met-aldehyde) the pIC50 was 7.60.

Same assay, conditions: Table 7 (Example 29); pH 7.5, 30° C., 30 minutes, casein; read-out: Inhibitory activity toward calpain II, IC50
Molecule CCCC[C@@H](C=O)NC(=O)[C@H](CC(C)C)NC(=O)OCc1ccccc1 [Example 20, N-benzyloxycarbonyl-L-leucyl-L-norleucinal] has a pIC50 of 6.89.

The molecules below were run against cathepsin B (Bos taurus, UniProt P07688) (assay: Anti-cathepsin activity (cathepsin B, benzyloxycarbonyl-L-lysine-p-nitrophenyl ester substrate)). Settings: Table 8 (Example 29); pH 5.1, 30° C., from bovine spleen; read-out: Inhibitory activity toward cathepsin B, IC50.
Type: biochemical, bovine
Protocol: A mixture of a test compound of the present invention and an acetate buffer solution (25 mM, pH=5.1, with 1 mM EDTA, 3.15 ml) containing a substrate (benzyloxycarbonyl-L-lysine-p-nitrophenyl ester, 0.114 mg) was preincubated at 30° C. for 1 minute. To the mixture, a solution (0.05 ml) of cathepsin B (derived from bovine spleen; product of Sigma; 0.05 units) in the acetate buffer was added to start the reaction. Immediately after the start of reaction, the change in absorbance at 326 nm was measured and the inhibitory activity of the test compound was determined by comparison with the control solution.
For CCCC[C@@H](C=O)NC(=O)[C@H](CC(C)C)NC(=O)OCC[Si](C)(C)C [Example 11, N-(2-trimethylsilylethyloxycarbonyl)-L-leucyl-L-norleucinal], the pIC50 was 6.02.
CCCC[C@@H](C=O)NC(=O)[C@H](CCCC)NC(=O)OCc1ccccc1 [Example 18, N-benzyloxycarbonyl-L-norleucyl-L-norleucinal] was tested, and the pIC50 was 6.96.
In the case of CCCC[C@@H](C=O)NC(=O)[C@H](CC(C)C)NC(C)=CC(=O)c1ccccc1 [Example 16, N-(2-benzoyl-1-methylvinyl)-L-leucyl-L-norleucinal], the pIC50 was 5.15.
For CCCC[C@@H](C=O)NC(=O)[C@H](CC(C)C)NC(=O)OC12CC3CC(CC(C3)C1)C2 [Example 5, N-adamantyloxycarbonyl-L-leucyl-L-norleucinal], the pIC50 was 6.74.
CCCC[C@@H](C=O)NC(=O)[C@H](CC(C)C)NC(c1ccccc1)(c1ccccc1)c1ccccc1 [Example 15, N-triphenylmethyl-L-leucyl-L-norleucinal] gave a pIC50 of 4.49.
CCCCCC(=O)N[C@@H](CC(C)C)C(=O)N[C@H](C=O)CCCC [Example 2, N-caproyl-L-leucyl-L-norleucinal] showed a pIC50 of 5.04.
Work on CCCCCCCC(=O)N[C@@H](CC(C)C)C(=O)N[C@H](C=O)CCCC [Example 1, N-caprylyl-L-leucyl-L-norleucinal] yielded a pIC50 of 6.96.
CCCC[C@@H](C=O)NC(=O)[C@H](CC(C)C)N1C(=O)c2ccccc2C1=O [Example 17, N-phthaloyl-L-leucyl-L-norleucinal] was tested, and the pIC50 was 4.00.
